Experimental data as given in ChEMBL document CHEMBL4229459, “An efficient synthetic route for preparation of antimycobacterial wollamides and evaluation of their in vitro and in vivo efficacy” (Bioorg Med Chem Lett, 2018).
Residues, ends and D or L forms follow the SMILES beside them.

Tested on: Mycobacterium tuberculosis
Experiment: Antimycobacterial activity against Mycobacterium bovis BCG measured after 7 days
Format: functional, organism-based
Settings: variant bovis BCG, 168 h

Row | SMILES | IC50 [nM]
1 | CC[C@@H](C)[C@@H]1NC(=O)[C@@H](CC(C)C)NC(=O)[C@H](CC(C)C)NC(=O)[C@H](Cc2c[nH]c3ccccc23)NC(=O)[C@@H](CCCN)NC(=O)[C@H](CC(N)=O)NC1=O | 2800
2 | CC(C)C[C@@H]1NC(=O)[C@H](Cc2c[nH]c3ccccc23)NC(=O)[C@@H](CCCN)NC(=O)[C@H](CC(N)=O)NC(=O)[C@H](C(C)C)NC(=O)[C@@H](CC(C)C)NC1=O (HELM PEPTIDE1{[NCCC[C@@H](N[*:1])C(=O)[*:2]].W.L.[dL].V.N}$PEPTIDE1,PEPTIDE1,1:R1-6:R2$$$V2.0) | 3100
